Consider 9 molecules from ChEMBL document CHEMBL1147242, “Briarlides, briarane diterpenes from a gorgonian Briareum sp” (J Nat Prod, 2003).

Series [1] in a line: Cytotoxicity against african green monkey Vero cells. It counts as cell-based. The settings on record: chlorocebus sabaeus.
Series [2] can be described thus: Cytotoxicity against MDCK cells. It counts as cell-based, Canis lupus familiaris. The settings on record: dog.

Molecules are shown by their SMILES. Converted amounts (≈) assume the structure as drawn. Bounds are passed on as bounds.

On to `CC(=O)O[C@@H]1[C@H]2[C@](C)(O)[C@H](OC(C)=O)C=C[C@]2(C)[C@@H](OC(C)=O)[C@H](O)[C@@H](OC(C)=O)/C(C)=C\[C@@H]2OC(=O)[C@]3(C)O[C@@]213` [BRIARLIDE B], for which the CC50 (usually the concentration giving 50% cytotoxicity) in series [1] amounted to 18.9 µg/mL (≈ 32.6 µM); in series [2], 15.4 µg/mL (≈ 26.5 µM).
With `CCCCCC(=O)O[C@H]1/C(C)=C\[C@@H]2OC(=O)[C@]3(C)O[C@]23[C@H](OC(C)=O)[C@H]2[C@](C)(O)[C@H](OC(C)=O)C=C[C@]2(C)[C@@H](OC(C)=O)[C@@H]1O` [BRIARLIDE E], the CC50 came to 4.24 µg/mL (≈ 6.66 µM) in series [1] and 4.91 µg/mL (≈ 7.71 µM) in series [2].
Regarding `CC(=O)O[C@@H]1[C@@H](OC(C)=O)/C(C)=C\[C@@H]2OC(=O)[C@]3(C)O[C@]23[C@H](OC(C)=O)[C@H]2[C@](C)(O)[C@H](O)C=C[C@]2(C)[C@H]1OC(C)=O` [VIOLIDE B], the CC50 is 9.8 µg/mL (≈ 16.9 µM) in series [1] and 28.8 µg/mL (≈ 49.6 µM) in series [2].
On to `CCCCCCCC(=O)O[C@H]1/C(C)=C\[C@@H]2OC(=O)[C@]3(C)O[C@]23[C@H](OC(C)=O)[C@H]2[C@](C)(O)[C@H](OC(C)=O)C=C[C@]2(C)[C@@H](OC(C)=O)[C@@H]1O` [BRIARLIDE D], for which the CC50 in series [1] is 2.26 µg/mL (≈ 3.4 µM); in series [2] it was 2.49 µg/mL (≈ 3.75 µM).
The like results for `CC(=O)O[C@@H]1[C@@H](OC(C)=O)/C(C)=C\[C@@H]2OC(=O)[C@]3(C)O[C@]23[C@H](OC(C)=O)[C@H]2[C@](C)(O)[C@H](OC(C)=O)C=C[C@]2(C)[C@H]1OC(C)=O` [BRIARLIDE A] were, in that order, 2.07 µg/mL (≈ 3.32 µM) and 4.74 µg/mL (≈ 7.61 µM).
For `CC(=O)O[C@@H]1[C@H]2[C@](C)(O)[C@H](O)C=C[C@]2(C)[C@@H](O)[C@H](OC(C)=O)C/C(C)=C\[C@@H]2OC(=O)[C@]3(C)O[C@@]213` [BRIARLIDE H] the same measures were over 100 µg/mL and over 100 µg/mL.
For the molecule `CC(=O)O[C@@H]1[C@H]2[C@](C)(O)[C@H](OC(C)=O)C=C[C@]2(C)[C@@H](O)[C@H](O)[C@@H](OC(C)=O)/C(C)=C\[C@@H]2OC(=O)[C@]3(C)O[C@@]213` [BRIARLIDE C], the CC50 stood at 62.1 µg/mL (≈ 115 µM) in series [1] and 38.6 µg/mL (≈ 71.7 µM) in series [2].
Take `CCCCCCCC(=O)O[C@@H]1[C@@H](O)/C(C)=C\[C@@H]2OC(=O)[C@]3(C)O[C@]23[C@H](OC(C)=O)[C@H]2[C@](C)(O)[C@H](OC(C)=O)C=C[C@]2(C)[C@H]1OC(C)=O` [BRIARLIDE F]: the figures for the CC50 in series [1] and in series [2] were 4.26 µg/mL (≈ 6.41 µM) and 3.49 µg/mL (≈ 5.25 µM), respectively.
Regarding `CC(=O)O[C@@H]1[C@H]2[C@](C)(O)[C@H](OC(C)=O)C=C[C@]2(C)[C@@H](OC(C)=O)[C@H](OC(C)=O)C/C(C)=C\[C@@H]2OC(=O)[C@]3(C)O[C@@]213` [BRIARLIDE G], the results for the CC50 in series [1] and in series [2] were 22.2 µg/mL (≈ 39.3 µM) and 67.1 µg/mL (≈ 119 µM), respectively.
